From PubChem BioAssay (NCI)
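Values below derive from 48-hour exposures of cells grown in 96-well plates, with endpoints linearly interpolated between the two concentrations bracketing the appropriate inhibition level. Here, GI50 denotes the concentration required for 50% inhibition of growth. TGI: concentration producing complete growth inhibition.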

How the values were obtained:
Test in all cases: NCI anticancer screen, dose series, 48 h
[1] = system: TK-10 renal
[2] = system: OVCAR-8 ovarian
[3] = system: A549 NSCLC
[4] = system: OVCAR-5 ovarian
[5] = system: KM12 colon
[6] = system: NCI-H522 lung
[7] = system: HOP-92 NSCLC
[8] = system: UO-31 renal
[9] = system: CAKI-1 renal
[10] = system: MCF7 breast

| Compound | TGI [1] [µM] | TGI [2] [µM] | TGI [3] [µM] | TGI [4] [µM] | TGI [5] [µM] | TGI [6] [µM] | TGI [7] [µM] | TGI [8] [µM] | TGI [9] [µM] | GI50 [1] [µM] | GI50 [2] [µM] | GI50 [3] [µM] | GI50 [4] [µM] | GI50 [5] [µM] | GI50 [7] [µM] | GI50 [8] [µM] | GI50 [9] [µM] | GI50 [10] [µM] | TGI [10] [µM] | GI50 [6] [µM] |
| --- | --- | --- | --- | --- | --- | --- | --- | --- | --- | --- | --- | --- | --- | --- | --- | --- | --- | --- | --- | --- |
| C=CCC1(CN(C)C)CC/C(=C\c2cc(OC)c(OC)c(OC)c2)C1=O (configuration not stated) | 36.4 | 54.6 | > 100 | > 100 | 32.8 | 29.4 | > 100 | 77 | > 100 | – | – | – | – | – | – | – | – | – | – | – |
| Cc1cc2[nH]c(=O)c3c4ncccc4cn3c2cc1C | 61.8 | > 100 | > 100 | > 100 | > 100 | – | 16.3 | 4.58 | > 100 | 4.36 | 2.89 | 4.82 | > 100 | 3.17 | 2.94 | 1.68 | 3.21 | – | – | – |
| OCC#Cc1ccccc1C#Cc1ccc(C#Cc2ccccc2C#CCO)cc1 | > 100 | > 100 | > 100 | 75.9 | > 100 | > 100 | – | > 100 | > 100 | 52.8 | 79.1 | 32.7 | 30.4 | 95.8 | – | 36 | 68.3 | 26.3 | > 100 | 50.1 |
| CCCC(=O)Oc1ccc(/C=N/NC(N)=S)nc1 | > 100 | > 100 | > 100 | > 100 | > 100 | > 100 | > 100 | > 100 | > 100 | – | – | – | – | – | – | – | – | – | – | – |
| COc1ccc(C2=NN(C(C)=O)c3nc4ccccc4nc3O2)cc1 | 52.1 | > 100 | > 100 | – | > 100 | 63.8 | 62.5 | 90.4 | – | – | – | – | – | – | – | – | – | – | – | – |
| COc1nc(NC2OC(COC(C)=O)C(OC(C)=O)C(OC(C)=O)C2OC(C)=O)c(N=C(C)C(C)=O)c(=O)n1C (configuration not stated) | > 100 | > 100 | > 100 | > 100 | > 100 | – | > 100 | > 100 | > 100 | – | – | – | – | – | – | – | – | – | – | – |
| Cn1c(=O)nc2n(-c3ccc(F)c(F)c3)c3ccccc3nc-2c1=O | > 100 | 68.1 | 60.5 | 37.5 | > 100 | 25.8 | – | > 100 | > 100 | – | – | – | – | – | – | – | – | – | – | – |
| CSc1ccc(Cc2cc(C(C)(C)C)cc(C(C)(C)C)c2O)cc1 | 25.7 | 30.7 | 27.3 | 13.2 | 23.4 | – | – | 30.7 | 30.5 | – | – | – | – | – | – | – | – | – | – | – |
| Cc1ccccc1SC(/C=C/NNC1=NC(c2ccccc2)C(c2ccccc2)=NN1)c1ccccc1 (configuration not stated) | 43.2 | 40 | 46.7 | > 100 | > 100 | > 100 | 27.7 | 48.6 | 30 | – | – | – | – | – | – | – | – | – | – | – |
| O=[N+]([O-])c1cc(I)cc(/C=N/NS(=O)(=O)c2ccc(F)cc2)c1O | 77.7 | 55.3 | > 100 | > 100 | 61.9 | 40.9 | 36.3 | 61 | 63.1 | – | – | – | – | – | – | – | – | – | – | – |
| CON1C(=O)C2(CCCCC2)C(=O)C12C=CC(C)CC2 (configuration not stated) | > 100 | > 100 | > 100 | – | > 100 | > 100 | – | > 100 | > 100 | – | – | – | – | – | – | – | – | – | – | – |
| CC1CCCc2c1n[nH]c2CC1CC(=O)NC(=O)C1 (configuration not stated) | > 100 | > 100 | > 100 | > 100 | > 100 | > 100 | > 100 | > 100 | > 100 | – | – | – | – | – | – | – | – | – | – | – |
| CC(=O)CCc1ccc(Oc2c3ccccc3nc3occc23)cc1 | 43.9 | 41.4 | 35.2 | 38.9 | 40 | > 100 | – | > 100 | 42 | 15.4 | 15.7 | 15.6 | 19 | 16.1 | – | 22.9 | 18.2 | 21.3 | 46.3 | 26.9 |
| CCCCCCCCCCNC(=S)OC | > 100 | > 100 | > 100 | – | – | 58.7 | 65.9 | 85.8 | > 100 | – | – | – | – | – | – | – | – | – | – | – |
| Nc1ccc(C(=O)CC2(O)C(=O)Nc3ccccc32)cc1 (configuration not stated) | > 100 | > 100 | > 100 | > 100 | – | > 100 | > 100 | > 100 | > 100 | – | – | – | – | – | – | – | – | – | – | – |
| COc1cccc(/C=C2\N=C(Cl)OC2=O)c1O | > 100 | > 100 | > 100 | > 100 | > 100 | > 100 | > 100 | > 100 | > 100 | – | – | – | – | – | – | – | – | – | – | – |
| CC(=O)N(N=O)c1ccc(N(N=O)C(C)=O)cc1 | – | > 100 | > 100 | > 100 | – | > 100 | > 100 | > 100 | > 100 | – | – | – | – | – | – | – | – | – | – | – |
| CC(=O)NNc1ncc(C(=O)/C=C/c2ccccc2C)s1 | > 100 | > 100 | > 100 | > 100 | > 100 | > 100 | > 100 | > 100 | > 100 | – | – | – | – | – | – | – | – | – | – | – |
| COC(=O)C(/C(=N/N)C(=O)Nc1cc(Cl)ccc1Cl)c1nc2ccc([N+](=O)[O-])cc2[nH]c1=O (configuration not stated) | > 100 | > 100 | > 100 | > 100 | > 100 | > 100 | > 100 | > 100 | – | – | – | – | – | – | – | – | – | – | – | – |
| CO[C@H]1/C=C/O[C@@]2(C)Oc3c(C)c(O)c4c(O)c(c(/C=N/N5C(C)CN(Cc6ccc(C#N)cc6)CC5C)c(O)c4c3C2=O)NC(=O)/C(C)=C\C=C\[C@H](C)[C@H](O)[C@@H](C)[C@@H](O)[C@@H](C)[C@H](OC(C)=O)[C@@H]1C (some centres not stated) | 18.8 | 38.9 | 17.1 | 18.1 | 12.7 | 22 | – | 10.5 | 17.8 | 7.92 | 10.4 | 6.81 | 8.88 | 5.89 | – | 3.64 | 7.65 | 6.37 | 24.3 | 6.22 |
| Cn1nc(-c2ccccc2)c2c(/C=C/c3ccc(F)cc3)onc2c1=O | > 100 | > 100 | > 100 | – | – | 51.1 | > 100 | > 100 | 66 | – | – | – | – | – | – | – | – | – | – | – |
